# Reference: PMC9760430, “A stapled chromogranin A-derived peptide homes in on tumors that express αvβ6 or αvβ8 integrins” (International Journal of Biological Sciences, 2023)
# Test system: 5M7101 pancreatic adenocarcinoma cells (αvβ6+ and αvβ8-)
# Test: binding of peptide-IRDye conjugates to cultured 5M7101 cells
# Format: cell-based, murine
# Settings: 0.32-200 nM, 1 h, 37 °C; bound NIR fluorescence
# Procedure: To assess the binding of peptide-IRDye conjugates to cells various amounts of conjugates (range 0.32-200 nM) were added to cultured cells and left to incubate for 1 h at 37 °C. After three washings, the cells were fixed and analyzed by scanning the plate with the Odyssey CLx.
# A control conjugate with a cysteine in place of the peptide was also prepared in parallel. The identity of the purified products, called 5a-IRDye, 2a-IRDye, and Cys-IRDye, was confirmed by mass spectrometry analysis (Table S1). In addition, the purity and identity of 5a-IRDye was monitored by liquid chromatography–mass spectrometry (LC-MS). […]
# that the product consist of a single peak at 230 and 735 nm with the expected molecular weight (purity >95%) (Figure S3A).
# The simplified molecular-input line-entry system (SMILES) of 5a-, 2a-, Cys- and 5a-Scr- […]
# The concentration of each conjugate was quantified by spectrophotometric analysis at 774 nm (molar absorption coefficient, 240,000 M-1, cm-1) (Figure S3B). […]
# The binding of peptide-IRDye conjugates to BxPC-3, 5M7101, and HUVECs cells was analyzed as follows. […]
# chloride and 1% BSA (binding buffer) for 5 min. […] Binding of conjugates to cells was quantified by scanning the plate (filled with PBS, 100 µl/well) with the Odyssey CLx (LI-COR) using the above settings, except that the scan focus offset and scan intensity were set to 4 and 8.5, respectively. […]
smiles,measurement,value
CC1(C)C(/C=C/C2=C(Oc3ccc(S(=O)(=O)O)cc3)C(=C\C=C3/N(CCCCCC(=O)NCCN4C(=O)CC(SC[C@H](N)C(=O)O)C4=O)c4ccc(S(=O)(=O)O)cc4C3(C)C)/CCC2)=[N+](CCCCS(=O)(=O)O)c2ccc(S(=O)(=O)[O-])cc21 (stereo partly shown) [Cys-IRDye],binding of conjugate to 5M7101 cells,little or no binding
